From patent US8889878B2, “Haloalky-substituted amides as insecticides and acaricides” (Bayer CropScience AG, priority 2009, dated 2014)

Experiments:
[1] = logP by HPLC on reverse-phase column (EEC Directive 79/831 Annex V.A8); type: physicochemical; conditions: for chromatographic logP: reverse-phase C18 HPLC column, pH 2.7, HPLC
Experimental: The logP values reported in the above Tables and Preparation Examples were determined according to EEC Directive 79/831 Annex V.A8 by HPLC (High Performance Liquid Chromatography) on a reverse-phase column (C18). Temperature 43° C.

[2] = test system: armyworm (Spodoptera frugiperda); test: Spodoptera frugiperda test (SPODFR spray treatment), Example 15; type: in vivo; conditions: maize leaf discs sprayed, after 7 days
Experimental: Spodoptera frugiperda Test (SPODFR Spray Treatment)
• Solvent: 78.0 parts by weight of acetone • 1.5 parts by weight of dimethylformamide • Emulsifier: 0.5 part by weight of alkylaryl polyglycol ether
To prepare an appropriate active ingredient formulation, 1 part by weight of active ingredient is mixed with the stated amounts of solvent and emulsifier, and the concentrate is diluted with emulsifier-containing water to the desired concentration. Leaf discs from maize (Zea mays) are sprayed with an active ingredient formulation of the desired concentration and, after drying, populated with caterpillars of the armyworm (Spodoptera frugiperda).
After 7 days, the efficacy in % is determined. 100% means that all caterpillars were killed; 0% means that no caterpillars were killed.

[3] = HPLC, C18 reverse phase, 43° C., acidic range pH 2.7, calibration with alkan-2-ones
[4] = HPLC-MS, HPLC on reverse-phase column
[5] = C18 reverse phase, 43° C., acidic range pH 2.7, calibration with alkan-2-ones

SMILES | logP ([1]; HPLC-MS) | efficacy in % ([2]; application rate 100 g/ha) [%] | other results
C#CC(C)(C)NC(=O)c1ccc(/C=C/C(=O)NC(c2cccc(C(F)(F)F)c2)C(F)(F)F)cc1Cl (racemic) [Ia-196] | HPLC-MS: logP = 3.64; mass | 83 | 
N#Cc1cnn(-c2ccc(/C=C/C(=O)NC(c3cccc(C(F)(F)F)c3)C(F)(F)F)cc2Cl)c1 (racemic) [Ia-200] | HPLC-MS: logP = 3.83; mass | 100 | 
O=C(/C=C/c1ccc(C(=O)Nc2ccc(F)cn2)c(Cl)c1)NC(c1cccc(C(F)(F)F)c1)C(F)(F)F (racemic) [Ia-203] | HPLC-MS: logP = 3.84; mass | 100 | 
O=C(/C=C/c1ccc(C(=O)Nc2ccc([N+](=O)[O-])cn2)c(Cl)c1)NC(c1cccc(C(F)(F)F)c1)C(F)(F)F (racemic) [Ia-204] | HPLC-MS: logP = 3.95; mass | 100 | 
N#Cc1ccc(NC(=O)c2ccc(/C=C/C(=O)NC(c3cccc(C(F)(F)F)c3)C(F)(F)F)cc2Cl)nc1 (racemic) [Ia-205] | HPLC-MS: logP = 3.72; mass | 100 | 
O=C(/C=C/c1ccc(-n2cnc(Cl)n2)c(C(F)(F)F)c1)NC(c1cccc(C(F)(F)F)c1)C(F)(F)F (racemic) [Ia-208] | HPLC-MS: logP = 4.02; mass | 100 | 
O=C(/C=C/c1ccc(-n2cncn2)c(Cl)c1)NC(c1ccc(F)c(Cl)c1)C(F)(F)F (racemic) [Ia-209] | HPLC-MS: logP = 3.15; mass | 83 | 
O=C(/C=C/c1ccc(C(=O)Nc2ccc(F)cn2)c(C(F)(F)F)c1)NC(c1cccc(C(F)(F)F)c1)C(F)(F)F (racemic) [Ia-210] | HPLC-MS: logP = 3.93; mass | 100 | 
N#Cc1ccc(NC(=O)c2ccc(/C=C/C(=O)NC(c3cccc(C(F)(F)F)c3)C(F)(F)F)cc2C(F)(F)F)nc1 (racemic) [Ia-211] | HPLC-MS: logP = 3.82; mass | 100 | 
O=C(/C=C/c1ccc(C(=O)Nc2ccc(F)cn2)c(Br)c1)NC(c1cccc(C(F)(F)F)c1)C(F)(F)F (racemic) [Ia-212] | HPLC-MS: logP = 3.87; mass | 100 | 
N#Cc1ccc(NC(=O)c2ccc(/C=C/C(=O)NC(c3cccc(C(F)(F)F)c3)C(F)(F)F)cc2Br)nc1 (racemic) [Ia-214] | HPLC-MS: logP = 3.75; mass | 100 | 
CCOCn1c(C(=O)NC(c2cccc(C(F)(F)F)c2)C(F)(F)F)cc2cc(C(=O)NC3CC3)c(Cl)cc21 (racemic) [Ic-27] |  | 100 | logP [1, 3]: HPLC-MS: logP = 3.81; mass
C=CCn1c(C(=O)NC(c2cccc(C(F)(F)F)c2)C(F)(F)F)cc2cc(C(=O)NC3CC3)c(Cl)cc21 (racemic) [Ic-29] |  | 100 | logP [1, 3]: HPLC-MS: logP = 3.86; mass
O=C(/C=C/c1ccc(C(=O)NCc2ccccn2)cc1)NC(c1cccc(C(F)(F)F)c1)C(F)(F)F (centres unmarked) [Ia-7] | HPLC-MS: logP = 2.45; mass |  | efficacy in % ([2]; application rate 500 g/ha): 83%
N#Cc1cc(/C=C/C(=O)NC(c2cc(Cl)ccc2Cl)C(F)(F)F)ccc1-n1cncn1 (centres unmarked) [Ia-15] | HPLC-MS: logP = 3.19; mass |  | efficacy in % ([2]; application rate 500 g/ha): 83%
CC(NC(=O)c1ccc(/C=C/C(=O)NC(c2cccc([N+](=O)[O-])c2)C(F)(F)F)cc1C(F)(F)F)C(F)(F)F (centres unmarked) [Ia-28] | HPLC-MS: logP = 3.83; mass |  | efficacy in % ([2]; application rate 500 g/ha): 83%
O=C(/C=C/c1ccc(C(=O)Nc2ncccn2)c(C(F)(F)F)c1)NC(c1cccc(C(F)(F)F)c1)C(F)(F)F (centres unmarked) [Ia-119] | HPLC-MS: logP = 3.11; mass | 100 | 
O=C(/C=C/c1ccc(C(=O)Nc2ncc(Cl)cn2)c(C(F)(F)F)c1)NC(c1cccc(C(F)(F)F)c1)C(F)(F)F (centres unmarked) [Ia-137] | HPLC-MS: logP = 3.62; mass | 100 | 
O=C(/C=C/c1ccc(C(=O)Nc2cc(Cl)ccn2)c(Cl)c1)NC(c1cccc(C(F)(F)F)c1)C(F)(F)F (centres unmarked) [Ia-165] | HPLC-MS: logP = 4,23; mass | 100 | 
CC(C#N)(NC(=O)c1ccc(/C=C/C(=O)NC(c2cccc(C(F)(F)F)c2)C(F)(F)F)cc1C(F)(F)F)C1CC1 (centres unmarked) [Ia-172] | HPLC-MS: logP = 3.74; mass | 100 | 
CC(NC(=O)c1ccc(/C=C/C(=O)NC(c2cccc(C(F)(F)F)c2)C(F)(F)F)cc1Br)C(F)(F)F (centres unmarked) [Ia-176] | HPLC-MS: logP = 3.78; mass | 100 | 
C#CC(C)NC(=O)c1ccc(/C=C/C(=O)NC(c2cccc(C(F)(F)F)c2)C(F)(F)F)cc1Br (centres unmarked) [Ia-178] | HPLC-MS: logP = 3.44; mass | 100 | 
O=C(/C=C/c1ccc(C(=O)Nc2ncccc2Cl)c(Cl)c1)NC(c1cccc(C(F)(F)F)c1)C(F)(F)F (centres unmarked) [Ia-183] | HPLC-MS: logP = 3.44; mass | 83 | 

SMILES | logP ([1]; HPLC-MS) | efficacy in % ([2]; application rate 100 g/ha) [%] | other results
O=C(/C=C/c1ccc(C(=O)Nc2cccnn2)c(C(F)(F)F)c1)NC(c1cccc(C(F)(F)F)c1)C(F)(F)F (centres unmarked) [Ia-225] | HPLC-MS: logP = 3.27; mass | 100 | 
O=C(/C=C/c1ccc(C(=O)Nc2cnc(Br)cn2)c(C(F)(F)F)c1)NC(c1cccc(C(F)(F)F)c1)C(F)(F)F (centres unmarked) [Ia-226] | HPLC-MS: logP = 4.15; mass | 100 | 
O=C(/C=C/c1ccc(C(=O)NC2CC2)c(Cl)c1)NC(c1cccc(Cl)c1)C(F)(F)F (centres unmarked) [Ia-235] | HPLC-MS: logP = 3.03; mass |  | efficacy in % ([2]; application rate 500 g/ha): 83%
CC(=O)NCc1ccc(/C=C/C(=O)NC(c2cccc(C(F)(F)F)c2)C(F)(F)F)cc1C(F)(F)F (centres unmarked) [Ia-247] | HPLC-MS: logP = 3.24; mass | 100 | 
CC(=O)NCc1ccc(/C=C/C(=O)NC(c2cccc(C(F)(F)F)c2)C(F)(F)F)cc1Cl (centres unmarked) [Ia-248] | HPLC-MS: logP = 3.06; mass | 100 | 
CC(C)C(=O)N(Cc1ccccn1)Cc1ccc(/C=C/C(=O)NC(c2cccc(C(F)(F)F)c2)C(F)(F)F)cc1F (centres unmarked) [Ia-253] | HPLC-MS: logP = 3.37; mass | 100 | 
CCN(C(=O)c1ccc(/C=C/C(=O)NC(c2cccc(C(F)(F)F)c2)C(F)(F)F)cc1C(F)(F)F)C1CC1 (centres unmarked) [Ia-257] | HPLC-MS: logP = 3.89; mass | 100 | 
O=C(/C=C/c1ccc(C(=O)N(Cc2cccnc2)C2CC2)c(C(F)(F)F)c1)NC(c1cccc(C(F)(F)F)c1)C(F)(F)F (centres unmarked) [Ia-258] | HPLC-MS: logP = 2.8; mass | 100 | 
Cc1ccnc(NC(=O)c2ccc(/C=C/C(=O)NC(c3cccc(C(F)(F)F)c3)C(F)(F)F)cc2C(F)(F)F)c1 (centres unmarked) [Ia-259] | HPLC-MS: logP = 3.61; mass | 100 | 
N#Cc1ccnc(NC(=O)c2ccc(/C=C/C(=O)NC(c3cccc(C(F)(F)F)c3)C(F)(F)F)cc2C(F)(F)F)c1 (centres unmarked) [Ia-260] |  | 100 | logP [1, 4]: HPLC-MS: logP = 3.61; mass
O=C(/C=C/c1ccc(CNc2cc(Cl)ccn2)c(C(F)(F)F)c1)NC(c1cccc(C(F)(F)F)c1)C(F)(F)F (centres unmarked) [Ia-264] |  | 100 | logP [1, 4]: HPLC-MS: logP = 4.28; mass
O=C(/C=C/c1ccc(CNC(=O)C2CCC2)c(C(F)(F)F)c1)NC(c1cccc(C(F)(F)F)c1)C(F)(F)F (centres unmarked) [Ia-267] |  | 100 | logP [1, 4]: HPLC-MS: logP = 3.9; mass
O=C(/C=C/c1ccc(CNS(=O)(=O)C2CC2)c(C(F)(F)F)c1)NC(c1cccc(C(F)(F)F)c1)C(F)(F)F (centres unmarked) [Ia-271] |  | 100 | logP [1, 4]: HPLC-MS: logP = 3.74; mass
CCC(=O)NCc1ccc(/C=C/C(=O)NC(c2ccc(F)c(C(F)(F)F)c2)C(F)(F)F)cc1C(F)(F)F (centres unmarked) [Ia-272] |  | 100 | logP [1, 4]: HPLC-MS: logP = 3.61; mass
CCC(=O)NC(C)c1ccc(/C=C/C(=O)NC(c2cccc(C(F)(F)F)c2)C(F)(F)F)cc1F (centres unmarked) [Ia-273] |  | 100 | logP [1, 4]: HPLC-MS: logP = 3.3; mass
CCC(=O)NC(C)c1ccc(/C=C/C(=O)NC(c2ccc(F)c(Cl)c2)C(F)(F)F)cc1F (centres unmarked) [Ia-274] |  | 100 | logP [1, 4]: HPLC-MS: logP = 3.23; mass
CCC(=O)NC(C)c1ccc(/C=C/C(=O)NC(c2ccc(F)c(C(F)(F)F)c2)C(F)(F)F)cc1F (centres unmarked) [Ia-275] |  | 100 | logP [1, 4]: HPLC-MS: logP = 3.38; mass
CN(C(=O)c1ccc(/C=C/C(=O)NC(c2ccc(F)c(C(F)(F)F)c2)C(F)(F)F)cc1C(F)(F)F)c1ccccn1 (centres unmarked) [Ia-281] |  | 100 | logP [1, 4]: HPLC-MS: logP = 3.63; mass
O=C(/C=C/c1ccc(C(=O)NC2CC2)c(C(F)(F)F)c1)NC(c1cccc(Br)c1)C(F)(F)F (centres unmarked) [Ia-284] |  | 100 | logP [1, 4]: HPLC-MS: logP = 3.35; mass
O=C(/C=C/c1ccc(C(=O)Nc2ccccn2)c(C(F)(F)F)c1)NC(c1cncc(C(F)(F)F)c1)C(F)(F)F (centres unmarked) [Ib-2] |  |  | logP [1, 3]: HPLC-MS: logP = 3.02 mass (m/z):; efficacy in % ([2]; application rate 500 g/ha): 83%
CC(NC(=O)CC1CC1)c1ccc(/C=C/C(=O)NC(c2cccc(C(F)(F)F)c2)C(F)(F)F)nc1 (centres unmarked) [If-3] |  | 100 | 
CC(C)(C)OC(=O)NC1CCc2cc(/C=C/C(=O)NC(c3cccc(C(F)(F)F)c3)C(F)(F)F)ccc21 (centres unmarked) [tert-Butyl {5-[(1E)-3-oxo-3-({2,2,2-trifluoro-1-[3-(trifluoromethyl)phenyl]ethyl}amino)prop-1-en-1-yl]-2,3-dihydro-1H-inden-1-yl}carbamate] |  |  | chromatographic logP [1, 5]: 4.44
NC(c1cc(F)cc(C(F)(F)F)c1)C(F)(F)F (stereo not drawn) [α,3-Bis(trifluoromethyl)-5-fluorobenzenemethanamine] |  |  | chromatographic logP [1, 5]: 2.51
